Entries after “also recorded” stand apart in the source; their conditions may differ.
Tests used:
EAE mice = assay: Experimental autoimmune encephalitis (EAE) induced with MOG peptide 35-55, neurological score; assay type: in vivo, Female C57BL/6 mice; conditions: for neurological score / neurological symptoms: oral 100 μg/kg, FIG. 2C, FIG. 3
Murine naïve CD4 cells = assay: Cytokine profile of RA1-treated CD4 cells (ELISA of supernatants); assay type: cell-based; conditions: anti-CD3/anti-CD28/IL2-activated CD4 cells, supernatants at 72 h
Description: Murine lymph nodes and/or spleens were mashed, harvested and single cell suspension was passed through a […] cell strainer and washed. Murine naïve CD4 cells were MACS separated using Miltenyi CD4 beads (Miltenyi Biotec GmbH, Bergisch Gladbach, ermany) according to manufacture instructions. Isolated T cells were seeded and activated with anti-CD3 […] and anti-CD28 […] (BD Biosciences, San Jose, Calif., USA) in the presence of IL2 (10 U/ml), (PeproTech Inc, Rocky Hill, N.J., USA). For cytokine production and RA1 determination supernatants were collected for ELISA. Cytokine analysis was performed in supernatants at 72 h using commercial kits: IFNγ, IL12 and IL4 (Perpotech), IL-17 (R&D systems) and IL10 (BD Biosciences).

[1] = test system: mouse peritoneal macrophages; assay: Oxidative burst of PMA-activated peritoneal macrophages (luminescence); assay type: cell-based; conditions: for oxidative burst in activated macrophages (luminescence): added 1 minute after PMA, FIG. 6
Description: Mice were injected i.p. with thioglycolate. Peritoneal macrophages were obtained and incubated with horse-reddish peroxidase and luminol. The reaction started by the addition of phorbol myristate acetate (PMA) and 1 minute later RA1 was added. Luminescence measurement was started after PMA addition. Each cycle represents 74 seconds.
Mice were injected ip with 1.5 ml thioglycolate (29.8 g/l). Peritoneal macrophages were obtained and incubated (2.5×10^6 cells/ml) in HBSS with 2 μl of 1 mM CoCl2, 2 μl 100 mM Na2SeO3, 2 μl of 10 mM luminal. The reaction started by the addition of 5 μl of 100 μM phorbol myristate acetate (PMA) (final concentration of 2.5 μM) and one minute later RA1 was added. Luminescence measurement was started after PMA addition. Each cycle represents 74 seconds.

[2] = test system: carrageenan-induced hind paw swelling; assay: Carrageenan-induced hind paw swelling; assay type: in vivo; conditions: 30 minutes prior to carrageenan, FIG. 5
Description: RA1 or saline were injected 30 minutes prior to carrageenan injection into the subplantar area. The diameter of the subplantar area was measured every 60 minutes by a micrometer. […] The effect of RA1 was tested in an animal model for inflammation. Inflammation induced by carrageenan, is acute, well-researched, and highly reproducible. Cardinal signs of inflammation edema, hyperalgesia, and erythema develop immediately following subcutaneous injection, resulting from action of proinflammatory agents bradykinin, histamine, tachykinins, complement and reactive oxygen, and nitrogen species. The inflammatory response is usually quantified by increase in paw size (edema). RA1 or its vehicle, i.e., saline, was injected ip 30 minutes prior to carrageenan treatment. Carrageenan (50 μl of 3 mg/ml) was injected into the subplantar area of both limbs of each animal. The diameter of the subplantar area was measured every 60 minutes by a micrometer. The degree of swelling was assessed by the difference between thicknesses measured after and prior to carrageenan injection (zero time).

experimental model of MS = conditions: intravenous and oral administrations; cited from earlier work
[3] = 3 times a week, starting 7 days after MOG immunization

Q: Which “neurological score / neurological symptoms” value (EAE mice; [3]) does the source give for “AEMIDLAAKMLSEG (ORYZA SATIVA JAPONICA) [RA4]” here?
A: reduction of the neurological score

Q: For “AEMIDLAAKMLSEGR (ORYZA SATIVA JAPONICA) [RA3]”, which “neurological score / neurological symptoms” value (EAE mice; [3]) is on record?
A: reduction of the neurological score

Q: With “AEMIDLAAKMLSEGRG (ORYZA SATIVA JAPONICA) [RA1, 16-mer peptide, amino acid residues 217-232 of Oryza sativa Japonica Group]” as the sequence, how does the neurological score (EAE mice; i.p. 0.1 μg/kg, three times a week, starting seven days after MOG immunization, FIG. 4) read?
A: an increased effect

Q: What about the neurological score (EAE mice; i.v., once on the day of MOG immunization, FIG. 2A) of the same sequence?
A: significantly improved

Q: What about the “neurological score / neurological symptoms” value (EAE mice; [3]) of the same sequence?
A: beneficial in reducing the neurological symptoms; also recorded: an increased effect

Q: And the IFNγ production (Murine naïve CD4 cells; FIG. 10A)?
A: reduction

Q: And the IL17 production (Murine naïve CD4 cells; FIG. 10B)?
A: reduction

Q: And the IL4 production (Murine naïve CD4 cells; FIG. 10C)?
A: elevation

Q: And the IL10 production (Murine naïve CD4 cells; FIG. 10D)?
A: elevation

Q: And the “oxidative burst in activated macrophages (luminescence)” value (“oxidative burst” below) ([1]; 0.1 ng/ml)?
A: less effective

Q: What about the “oxidative burst” value ([1]; 1.0 ng/ml) of the same sequence?
A: less effective

Q: What about the “oxidative burst” value ([1]; 10 ng/ml) of the same sequence?
A: strongly inhibited

Q: What about the hydroxyl radical scavenger ([1]; summary statement referring to Example 6) of the same sequence?
A: highly effective

Q: What about the “swelling induced after the carrageenan injection” value ([2]; one dose 1.0 μg/kg ip) of the same sequence?
A: significantly reduced

Q: What about the “swelling induced after the carrageenan injection” value ([2]; one dose 10 μg/kg ip) of the same sequence?
A: significantly reduced

Q: Which neurological score (EAE mice; i.p. 1 μg/kg, 3 times a week, starting 7 days after MOG immunization, FIG. 2B, FIG. 4) does the source give for “EMIDLAAKMLSEGRG (ORYZA SATIVA JAPONICA) [RA2]” here?
A: reduction of the neurological score

Q: With “KGHYAERVG (listed as Homo sapiens) [IIIM1, 9-mer peptide derived from human histone H2A]” as the sequence, how does the “neurological symptoms in the diseased mice” value (experimental model of MS) read?
A: significantly ameliorated the neurological symptoms

Reference: patent US8765679B2, “Extract and peptides derived from Oryza sativa Japonica Group and uses thereof” (Yissum Research Development Company of The Hebrew …, priority 2010, dated 2014)
